# Structures can show the parent of a compound that is named as a salt. Where two headings read alike, the source gives them in different places.
# Columns and labels:
# [1] = test system: primary rat microglia;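 on Fibrin % cell toxicity: share of dead cells sized under 150 µm2 at 10 µM in fibrin-stimulated microglia HTS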
# [2] = test system: fibrin- and LPS-induced microglia activation; assay: cells; format: cell-based, rat
# [3] = test system: LPS-induced microglia activation; assay: Image-based assay of LPS-induced microglia activation (HTS and dose response); format: cell-based, rat
# [4] = test system: fibrin-induced microglia activation; assay: Image-based assay of fibrin-induced microglia activation (HTS and dose response); format: cell-based, rat; details: for inhibition at 10 µM: Rattus norvegicus, Microglia, read-out: Fibrin % inhibition
# [5] = test system: primary rat microglia; remark: listed apart in the source;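 on Fibrin % cell toxicity: share of dead cells sized under 150 µm2 at 10 µM in fibrin-stimulated microglia HTS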
# [6] = classification by fibrin and LPS inhibition in HTS
# [7] = Rattus norvegicus, Microglia, 48 h, primary microglia HTS, LPS stimulation, cell size >800 μm2 as marker of activation; read-out: LPS % inhibition
# [8] = primary microglia HTS, fibrin stimulation, cell size >800 μm2 as marker of activation
# [9] = Rattus norvegicus, Microglia, 48 h; read-out: LPS % inhibition
# [10] = quadrant by fibrin and LPS inhibition, HTS at 10 μM
# [11] = Rattus norvegicus, Microglia, primary microglia HTS, LPS stimulation, compounds at 10 μM; read-out: LPS % inhibition
# [12] = primary microglia HTS, fibrin stimulation, compounds at 10 μM
# [13] = HTS of 1907 compounds, quadrant by fibrin and LPS inhibition
# [14] = Rattus norvegicus, Microglia, primary microglia HTS, 10 μM, LPS-stimulated, cell size >800 μm^2 as marker of activation; read-out: LPS % inhibition
# [15] = primary microglia HTS, 10 μM, fibrin-stimulated, cell size >800 μm^2 as marker of activation
# [16] = Rattus norvegicus, Microglia, read-out: LPS % inhibition
Compound,LPS % cell toxicity ([1]; rat) [%],"Quadrant (FIG. 5b) [2, 6]","inhibition at 10 µM [4, 8] [%]",Fibrin % cell toxicity ([5]; rat) [%],"Quadrant (FIG. 5b) [2, 13]",other results
Oc1cccc(O)c1 [Resorcinol],0,Q4,-4,0,,"inhibition at 10 µM [3, 7]: 8%"
CCCCCCCCCCCCCCCC(=O)OC/C=C(C)/C=C/C=C(C)/C=C/C1=C(C)CCCC1(C)C [Retinyl Palmitate],0,Q4,-15,0,,"inhibition at 10 µM [3, 9]: 11%"
CO[C@H]1/C=C/O[C@@]2(C)Oc3c(C)c(O)c4c(c3C2=O)C2=NC3(CCN(CC(C)C)CC3)NC2=C(NC(=O)/C(C)=C\C=C\[C@H](C)[C@H](O)[C@@H](C)[C@@H](O)[C@@H](C)[C@H](OC(C)=O)[C@@H]1C)C4=O [Rifabutin],0,Q4,-51,0,,"inhibition at 10 µM [3, 9]: 2%"
CO[C@H]1/C=C/O[C@@]2(C)Oc3c(C)c(O)c4c(O)c(c(/C=N/N5CCN(C)CC5)c(O)c4c3C2=O)NC(=O)/C(C)=C\C=C\[C@H](C)[C@H](O)[C@@H](C)[C@@H](O)[C@@H](C)[C@H](OC(C)=O)[C@@H]1C [Rifampicin],0,,,1,,Quadrant (FIG. 5b) [2]: Q4; LPS % inhibition [3]: 7%; Fibrin % inhibition [4]: −21%
CO[C@H]1/C=C/O[C@@]2(C)Oc3c(C)c(O)c4c(O)c(c(/C=N/N5CCN(C)CC5)c(O)c4c3C2=O)NC(=O)/C(C)=C\C=C\[C@H](C)[C@H](O)[C@@H](C)[C@@H](O)[C@@H](C)[C@H](OC(C)=O)[C@@H]1C [Rifampin],0,,,1,,Quadrant (FIG. 5b) [2]: Q4; LPS % inhibition [3]: 20%; Fibrin % inhibition [4]: 8%
CC(C)c1nc(CN(C)C(=O)N[C@H](C(=O)N[C@@H](Cc2ccccc2)C[C@H](O)[C@H](Cc2ccccc2)NC(=O)OCc2cncs2)C(C)C)cs1 [Ritonavir],0,Q4,-8,0,,"inhibition at 10 µM [3, 9]: 11%"
"CCCN1CCCC[C@H]1C(=O)Nc1c(C)cccc1C [Ropivacaine, Ropivacaine Hydrochloride]",,Q4,,,,"LPS % cell toxicity [1]: 0%; LPS % inhibition [3]: 5%; Fibrin % inhibition [4, 8]: 18%; Fibrin % cell toxicity [5]: 1%"
"CN(CCOc1ccc(CC2SC(=O)NC2=O)cc1)c1ccccn1 (centres unmarked) [Rosiglitazone, Rosiglitazone Maleate]",,,,,,LPS % cell toxicity [1]: 1%; Quadrant (FIG. 5b) [2]: Q4; LPS % inhibition [3]: 20%; Fibrin % inhibition [4]: 5%; Fibrin % cell toxicity [5]: 1%
O=C1NS(=O)(=O)c2ccccc21 [Saccharin],0,,,0,,"Quadrant (FIG. 5b) [2]: Q4; inhibition at 10 µM ([3]; Rattus norvegicus, Microglia, 48 h, read-out: LPS % inhibition): 11%; inhibition at 10 µM [4]: -8%"
CC(C)(C)NCC(O)c1ccc(O)c(CO)c1 (centres unmarked) [Salbutamol],0,Q4,25,1,,"inhibition at 10 µM [3, 9]: 25%"
NC(=O)c1ccccc1O [Salicylamide],1,Q4,-20,1,,"inhibition at 10 µM [3, 9]: 16%"
CC1CCC(NC(=O)N(CCCl)N=O)CC1 (centres unmarked) [Semustine],0,Q4,-7,1,,"inhibition at 10 µM [3, 9]: 18%"
CC(C)CC(N(C)C)C1(c2ccc(Cl)cc2)CCC1 (centres unmarked) [Sibutramine],0,Q4,-12,1,,"inhibition at 10 µM [3, 7]: 8%"
CO[C@H]1C[C@@H]2CC[C@@H](C)[C@@](O)(O2)C(=O)C(=O)N2CCCC[C@H]2C(=O)O[C@H]([C@H](C)C[C@@H]2CC[C@@H](O)[C@H](OC)C2)CC(=O)[C@H](C)/C=C(\C)[C@@H](O)[C@@H](OC)C(=O)[C@H](C)C[C@H](C)/C=C/C=C/C=C/1C [Sirolimus],1,,,4,,"Quadrant (FIG. 5b) [2, 10]: Q2; inhibition at 10 µM [3, 11]: 81%; inhibition at 10 µM [4, 12]: 108%"
O=C([O-])[C@H](O)[C@@H](O)[C@H](O)[C@H](O)CO.[Na+] [Sodium Gluconate],0,Q4,1,1,,"inhibition at 10 µM [3, 9]: 11%"
CNC(=O)c1cc(Oc2ccc(NC(=O)Nc3ccc(Cl)c(C(F)(F)F)c3)cc2)ccn1 [Sorafenib],1,Q4,-67,1,,"inhibition at 10 µM [3, 9]: 35%"

Compound,LPS % cell toxicity ([1]; rat) [%],"Quadrant (FIG. 5b) [2, 6]","inhibition at 10 µM [4, 8] [%]",Fibrin % cell toxicity ([5]; rat) [%],"Quadrant (FIG. 5b) [2, 13]",other results
CC(C)NCC(O)c1ccc(NS(C)(=O)=O)cc1 (centres unmarked) [Sotalol],0,Q4,6,1,,"inhibition at 10 µM [3, 9]: 6%"
[H]/N=C(/N)N[C@H]1[C@H](O)[C@@H](O)[C@H](O[C@@H]2O[C@@H](C)[C@](O)(C=O)[C@H]2O[C@@H]2O[C@@H](CO)[C@H](O)[C@@H](O)[C@@H]2NC)[C@@H](N/C(N)=N\[H])[C@@H]1O [Streptomycin Sulfate],0,,,0,Q4,"inhibition at 10 µM [3, 14]: 13%; inhibition at 10 µM [4, 15]: -46%"
O=C1C[C@@H]2OCC=C3CN4CC[C@]56c7ccccc7N1[C@H]5[C@H]2[C@H]3C[C@H]46 [Strychnine],0,,,1,,"Quadrant (FIG. 5b) [2]: Q4; inhibition at 10 µM [3, 16]: 18%; inhibition at 10 µM [4]: 1%"
Nc1ccc(S(=O)(=O)Nc2ncccn2)cc1 [Sulfadiazine],0,,,0,,"Quadrant (FIG. 5b) [2]: Q4; inhibition at 10 µM [3, 16]: 13%; inhibition at 10 µM [4]: -19%"
Cc1cc(C)nc(NS(=O)(=O)c2ccc(N)cc2)n1 [Sulfamethazine],0,,,0,Q4,"inhibition at 10 µM [3, 14]: 14%; inhibition at 10 µM [4, 15]: -9%"
Nc1ccc(S(=O)(=O)Nc2ccccn2)cc1 [Sulfapyridine],0,,,1,Q4,"inhibition at 10 µM [3, 14]: 20%; inhibition at 10 µM [4, 15]: -37%"
O=C(O)c1cc(/N=N/c2ccc(S(=O)(=O)Nc3ccccn3)cc2)ccc1O [Sulfasalazine],0,,,0,Q4,"inhibition at 10 µM [3, 14]: 13%; inhibition at 10 µM [4, 15]: -29%"
Nc1ccc(S(=O)(=O)Nc2nccs2)cc1 [Sulfathiazole],0,,,0,Q4,"inhibition at 10 µM [3, 14]: 9%; inhibition at 10 µM [4, 15]: -17%"
CC1=C(CC(=O)O)c2cc(F)ccc2/C1=C\c1ccc([S+](C)[O-])cc1 (centres unmarked) [Sulindac],0,,,1,Q4,"inhibition at 10 µM [3, 14]: 6%; inhibition at 10 µM [4, 15]: 21%"
CCN(CC)CCNC(=O)c1c(C)[nH]c(/C=C2\C(=O)Nc3ccc(F)cc32)c1C [Sunitinib],27,,,75,,"Quadrant (FIG. 5b) [2, 10]: Q2; inhibition at 10 µM [3, 11]: 101%; inhibition at 10 µM [4, 12]: 106%"
O=c1n(Cl)c(=O)n(Cl)c(=O)n1Cl [Symclosene],0,,,0,Q4,"inhibition at 10 µM [3, 14]: 11%; inhibition at 10 µM [4, 15]: -13%"
Nc1c2c(nc3ccccc13)CCCC2 [Tacrine],0,,,1,,"Quadrant (FIG. 5b) [2]: Q4; inhibition at 10 µM [3, 16]: 5%; inhibition at 10 µM [4]: -2%"
CC[C@@H](c1cccc(O)c1)[C@@H](C)CN(C)C [Tapentadol Hydrochloride],0,,,1,Q4,"inhibition at 10 µM [3, 14]: 12%; inhibition at 10 µM [4, 15]: -12%"
"CC(=O)O[C@H]1C(=O)[C@@]2(C)[C@H]([C@H](OC(=O)c3ccccc3)[C@]3(O)C[C@H](OC(=O)[C@H](O)[C@@H](NC(=O)c4ccccc4)c4ccccc4)C(C)=C1C3(C)C)[C@]1(OC(C)=O)CO[C@@H]1C[C@@H]2O [Taxol, Paclitaxel]",,,,,Q4,"LPS % cell toxicity [1]: 1%; LPS % inhibition ([3]; primary microglia HTS, 10 μM, LPS-stimulated, cell size >800 μm^2 as marker of activation): 19%; Fibrin % inhibition [4, 15]: 45%; Fibrin % cell toxicity [5]: 1%"
CC[C@H]1OC(=O)[C@H](C)C(=O)[C@H](C)[C@@H](O[C@@H]2O[C@H](C)C[C@H](N(C)C)[C@H]2O)[C@](C)(OC)C[C@@H](C)C(=O)[C@H](C)[C@H]2N(CCCCn3cnc(-c4cccnc4)c3)C(=O)O[C@]12C [Telithromycin],0,,,1,Q4,"inhibition at 10 µM [3, 14]: 17%; inhibition at 10 µM [4, 15]: 0%"

# — patent US20210330611A1, “THERAPY FOR NEUROLOGICAL DISEASES/DISORDERS” (priority 2020, published 2021)
